Results as given in patent publication US9290452B2, “Multicomponent crystalline system comprising deferasirox and isonicotinamide and a process for the preparation thereof” (BASF SE, priority 2012, dated 2016).

Legend:
[1] = Aqueous solubility determination (suspension equilibration for three days, HPLC); format: physicochemical; details: pure water, 25±2° C. (ambient temperature), about three days of suspension equilibration, filtered solution
Method: The aqueous solubility of Deferasirox free drug substance and the multicomponent crystalline system of the present invention (Deferasirox-Isonicotinamide co-crystal) was determined in water at ambient temperature after about three days of suspension equilibration using HPLC for the determination of the concentration in the filtered solution.
Solubility determinations were carried out in pure water at 25±2° C. Suspensions with about 50 mg the solid form, either the co-crystal of the present invention or deferasirox free drug substance in 7 mL water were prepared an equilibrated for three days before the solution phase was filtered off and tested by HPLC.
HPLC was carried out on an Agilent 1100 HPLC chromatograph equipped with a UV-vis detection unit. The column type used was a Waters XTerra MS C18, 100×4.6 mm, 5 μm (FK-CC01F). […]
882 mg of Deferasirox and 290 mg of isonicotinamide are dissolved in a mixture of 15 ml acetone and 3 ml THF by shortly heating to reflux temperature. […] Then suspension is filtered and the concentration in the solution determined by HPLC. […]

[2] = Dynamic water vapor adsorption measurements (DVS); format: physicochemical; details: water vapor sorption
From the text: It is known that the anhydrous form A of Deferasirox converts to a hydrate form upon exposure to high relative humidity, therefore anhydrous Deferasirox is hygroscopic. The multicomponent crystalline system described here is characterized in that it has good hygroscopic properties, i.e. absorb little water at high relative humidity. This is evident from table 1 below, which compares the water contents of the multicomponent crystalline system and Deferasirox free drug substance at 50% and 95% relative humidity. The data originate from dynamic water vapor adsorption measurements. The water vapor sorption measurement is a suitable method for investigating the hygroscopic properties of solid substances. Water vapor sorption measurements can be carried out in different ways. In general, in this connection, a small sample of ca. 10-30 mg is introduced into a microbalance in a suitable sample carrier. The sample is then exposed to different relative humidities in accordance with a defined program, the change in the sample mass being simultaneously recorded over the time. […]
Dynamic water vapor adsorption measurements were carried out using an SPS11 100 n instrument, manufactured by “Projekt Messtechnik” in Ulm, Germany. […] The sample was then subjected to preselected relative humidities in accordance with a defined program, the change in mass being determined over the time. […]

solubility thermodynamic at 3 days [1]: < 1 µg/mL
H2O content at 50% r.h. ([2]; 50% relative humidity): 0.5%
H2O content at 95% r.h. ([2]; 95% relative humidity): 3.6%
SMILES: O=C(O)c1ccc(-n2nc(-c3ccccc3O)nc2-c2ccccc2O)cc1 [Deferasirox free drug substance, 4-[3,5-bis(2-hydroxyphenyl)-1H-1,2,4-triazol-1-yl]benzoic acid]
